Assays:
[1] = stability of the isolated material on storage; format: physicochemical
[2] = serum T and DHT concentrations after subcutaneous injection; conditions: over 24 hours
AR = target: T1, AR (Rattus norvegicus, UniProt P15207)
T1 sequence (P15207 1-902): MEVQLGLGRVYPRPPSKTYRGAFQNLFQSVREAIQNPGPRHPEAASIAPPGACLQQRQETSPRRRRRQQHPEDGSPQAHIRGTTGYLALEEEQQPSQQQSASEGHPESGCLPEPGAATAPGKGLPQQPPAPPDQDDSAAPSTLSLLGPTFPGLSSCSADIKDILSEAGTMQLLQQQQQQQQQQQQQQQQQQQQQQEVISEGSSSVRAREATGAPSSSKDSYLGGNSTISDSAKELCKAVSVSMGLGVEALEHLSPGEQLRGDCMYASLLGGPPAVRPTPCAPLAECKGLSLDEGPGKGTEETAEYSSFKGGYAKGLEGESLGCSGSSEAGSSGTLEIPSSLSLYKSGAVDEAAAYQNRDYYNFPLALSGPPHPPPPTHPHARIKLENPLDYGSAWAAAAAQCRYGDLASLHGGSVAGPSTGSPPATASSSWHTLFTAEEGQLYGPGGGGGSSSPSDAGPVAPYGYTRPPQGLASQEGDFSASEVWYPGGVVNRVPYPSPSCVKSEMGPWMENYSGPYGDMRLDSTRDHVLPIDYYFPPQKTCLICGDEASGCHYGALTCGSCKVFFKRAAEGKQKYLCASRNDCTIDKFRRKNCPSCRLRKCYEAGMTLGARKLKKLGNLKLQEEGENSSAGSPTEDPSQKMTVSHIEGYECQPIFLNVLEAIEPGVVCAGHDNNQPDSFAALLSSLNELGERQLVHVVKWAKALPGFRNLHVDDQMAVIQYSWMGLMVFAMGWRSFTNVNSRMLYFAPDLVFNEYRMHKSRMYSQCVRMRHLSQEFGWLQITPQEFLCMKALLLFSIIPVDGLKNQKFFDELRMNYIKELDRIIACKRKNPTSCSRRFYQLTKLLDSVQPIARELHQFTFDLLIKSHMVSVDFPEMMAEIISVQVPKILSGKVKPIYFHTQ

wild type AR = conditions: read-out: Kd for [^3H]-DHT; MDA 453 cells (wild type AR), saturation analysis, Scatchard
Procedure: For the saturation analysis, the difference between the total binding and the non-specific binding, is defined as specific binding.
Two replicates are used for each sample. After 4 hours at 37° C., cells are washed, harvested, and counted as described above. […] The K1 values are determined by application of the Cheng-Prusoff equation to the IC50 values, where:
[formula] After correcting for non-specific binding, IC50 values are determined. […] Murine Breast Cell Proliferation Assay

N#Cc1ccc(N2C[C@H]3[C@H]4CC[C@H](C4)[C@@]3(COS(=O)(=O)C(F)(F)F)S2(=O)=O)cc1C(F)(F)F [Example 61, ((1R,2R,6R,7S)-4-(4-cyano-3-(trifluoromethyl)phenyl)-3,3-dioxido-3-thia-4-azatricyclo[5.2.1.0^2,6]dec-2-yl)methyl trifluoromethanesulfonate]
stability ([1]; under an inert atmosphere, unpurified material): stable for several weeks under an inert atmosphere

N#Cc1ccc(N2C[C@H]3[C@H]4CC[C@H](C4)[C@@]3(CN=[N+]=[N-])S2(=O)=O)cc1C(F)(F)F [Example 65, 4-((1R,2R,6R,7S)-2-(azidomethyl)-3,3-dioxido-3-thia-4-azatricyclo[5.2.1.0^2,6]dec-4-yl)-2-(trifluoromethyl)benzonitrile]
stability ([1]; ambient conditions): prone to decomposition under ambient conditions

C[C@]12CC[C@H]3[C@@H](CCC4=CC(=O)CC[C@@]43C)[C@@H]1CC[C@@H]2O [T, testosterone]
course of serum concentrations of T and DHT [2]: decline very rapidly

CCC(=O)O[C@H]1CC[C@H]2[C@@H]3CCC4=CC(=O)CC[C@]4(C)[C@H]3CC[C@]12C [TP, testosterone propionate]
potency relative to free T (AR; higher potency than free T): 10-30 fold | ED80 (AR; immature castrated rat model, weights of VP and SV): 0.1 mg | EC50 (increase in organ weight, VP and SV) (AR; immature castrated rats, dosing for 3 days): ~0.03 mg

tritiated dihydrotestosterone [[^3H]-DHT]
Kd (wild type AR): 700 pM

— patent US7468439B2, “Alkylene bridged sultam compounds useful as modulators of nuclear hormone receptor function” (Bristol-Myers Squibb Company, priority 2006, dated 2008)
